In patent US20260076973A1 (priority 2023, published 2026):
Where a name gives a salt, the structure may show the parent alone. Read-outs that look alike come from different tables or passages of the source.

System: SARS-CoV-2(delta variant)
Assay: microbe, parasite or virus in culture
Format: cell-based
[1] = Severe acute respiratory syndrome coronavirus 2, Vero C1008, read-out: IC50
[2] = Severe acute respiratory syndrome coronavirus 2, Vero C1008, read-out: IC90
[3] = Severe acute respiratory syndrome coronavirus 2, Vero C1008

| SMILES | IC50 [1] [nM] | IC90 [2] [nM] | further results |
| --- | --- | --- | --- |
| Cc1ccc(Nc2nc(N3CCOCC3)nc(N3CCOCC3)n2)cc1C [VIRADEM-10884, (3,4-dimethylphenyl)-(4,6-dimorpholin-4-yl-[1,3,5]triazin-2-yl)-amine] | 389 | 477 |  |
| Cc1ccc(Nc2nc(Nc3ccc(C)c(C)c3)nc(N3CCOCC3)n2)cc1 [VIRADEM-11141] | 125 | 150 |  |
| CCOC(=O)c1ccc(Nc2nc(Nc3ccc(F)cc3)nc(N3CCOCC3)n2)cc1 [VIRADEM-11660, 4-[4-(4-Fluorophenylamino)-6-morpholin-4-yl-[1,3,5]triazin-2-ylamino]benzoic acid ethyl ester] | 1860 | > 3000 |  |
| Cc1cccc(N2C(N3CCOCC3)=NC(N)=NC2Nc2ccc(Cl)cc2)c1 (stereo not shown) [VIRADEM-11680, N-(4-Chlorophenyl)-6-morpholin-4-yl-N^1-m-tolyl-[1,3,5]triazine-2,4-diamine hydrochloride] | 428 | 521 |  |
| Cc1cccc(N2C(N3CCOCC3)=NC(N)=NC2Nc2cccc(Cl)c2)c1 (stereo not shown) [VIRADEM-11781, N-(3-Chlorophenyl)-6-morpholin-4-yl-N^1-m-tolyl-[1,3,5]triazine-2,4-diamine hydrochloride] | 1280 | 1370 |  |
| Cc1ccc(N2C(N3CCOCC3)=NC(N)=NC2Nc2cccc(F)c2)cc1 (stereo not shown) [VIRADEM-11785, N-(3-Fluorophenyl)-6-morpholin-4-yl-N^1-p-tolyl-[1,3,5]triazine-2,4-diamine hydrochloride] | 559 | 690 |  |
| Cc1cccc(N2C(N3CCOCC3)=NC(N)=NC2Nc2cccc(F)c2)c1 (stereo not shown) [VIRADEM-11786, N-(3-Fluorophenyl)-6-morpholin-4-yl-N^1-m-tolyl-[1,3,5]triazine-2,4-diamine hydrochloride] | 371 | 396 |  |
| Cc1cccc(N2C(N3CCOCC3)=NC(N)=NC2Nc2ccc(F)cc2)c1 (stereo not shown) [VIRADEM-11787, N-(4-Fluorophenyl)-6-morpholin-4-yl-N^1-m-tolyl-[1,3,5]triazine-2,4-diamine hydrochloride] | 404 | 446 |  |
| CCOc1ccc(NC2N=C(N)N=C(N3CCOCC3)N2c2cccc(C)c2)cc1 (stereo not shown) [VIRADEM-11794, N-(4-Ethoxyphenyl)-6-morpholin-4-yl-N^1-m-tolyl-[1,3,5]triazine-2,4-diamine hydrochloride] | 545 | 855 |  |
| CC(=O)Nc1ccc(Nc2nc(Nc3ccc(Cl)cc3)nc(N3CCOCC3)n2)cc1 [VIRADEM-11847, N-{4-[4-(4-Chlorophenylamino)-6-morpholin-4-yl-[1,3,5]triazin-2-ylamino]-phenyl}-acetamide] | 36 | 46 |  |
| CC(=O)c1cccc(Nc2nc(Nc3ccc(Cl)cc3)nc(N3CCOCC3)n2)c1 [VIRADEM-11882, 1-{3-[4-(4-chlorophenylamino)-6-morpholin-4-yl-[1,3,5]triazin-2-ylamino]-phenyl}-ethanone] | 470 | 635 |  |
| CCOC(=O)c1ccc(Nc2nc(Nc3ccc(C)c(C)c3)nc(N3CCOCC3)n2)cc1 [VIRADEM-11913, 4-[4-(3,4-Dimethylphenylamino)-6-morpholin-4-yl-[1,3,5]-2-ylamino]-benzoic acid ethyl ester] |  |  | IC50 (read-out: IC50): 245 nM; IC90 (read-out: IC90): 331 nM |
| Cc1ccc(Nc2nc(Nc3cccc(C(F)(F)F)c3)nc(N3CCOCC3)n2)cc1C [VIRADEM-11914, N-(3,4-Dimethylphenyl)-6-morpholin-4-yl-N^1-(3-trifluoromethylphenyl)-[1,3,5]triazine-2,4-diamine] | 382 | 437 |  |
| CCOC(=O)c1ccc(Nc2nc(Nc3ccc(C)cc3)nc(N3CCOCC3)n2)cc1 [VIRADEM-11916, 4-(4-Morpholin-4-yl-6-p-tolylamino[1,3,5]-2-ylamino)-benzoic acid ethyl ester] |  |  | IC50 (read-out: IC50): 559 nM; IC90 (read-out: IC90): 707 nM |
| CC(=O)Nc1ccc(Nc2nc(Nc3ccc(C)c(C)c3)nc(N3CCOCC3)n2)cc1 [VIRADEM-11918, N-{4-[4-(3,4-Dimethylphenylamino)-6-morpholin-4-yl-[1,3,5]triazin-2-ylamino]phenyl}-acetamide] | 41 | 60 |  |
| CCOC(=O)c1ccc(Nc2nc(Nc3cc(C)cc(C)c3)nc(N3CCOCC3)n2)cc1 [VIRADEM-11934, 4-[4-(3,5-Dimethylphenylamino)-6-morpholin-4-yl-[1,3,5]-2-ylamino]-benzoic acid ethyl ester] |  |  | IC50 (read-out: IC50): 1020 nM; IC90 (read-out: IC90): 1240 nM |
| CC(=O)c1cccc(Nc2nc(Nc3ccccc3)nc(N3CCOCC3)n2)c1 [VIRADEM-12125, 1-[3-(4-Morpholin-4-yl-6-phenylamino-[1,3,5]triazin-2-ylamino)-phenyl]-ethanone hydrochloride] | 584 | 1370 |  |
| Cc1cccc(Nc2nc(Nc3ccc(C(C)C)cc3)nc(N3CCOCC3)n2)c1 [VIRADEM-12251, N-(4-Isoproylphenyl)-6-morpholin-4-yl-N^1-m-tolyl-[1,3,5]triazine-2,4-diamine hydrochloride] |  |  | IC50 (read-out: IC50): 951 nM; IC90 (read-out: IC90): 1170 nM |
| COc1cccc(NC2N=C(N)N=C(N3CCOCC3)N2c2ccccc2)c1 (stereo not shown) [VIRADEM-12252, N-(3-Methoxyphenyl)-6-morpholin-4-yl-N^1-phenyl-[1,3,5]triazine-2,4-diamine hydrochloride] | 357 | 425 |  |
| COC(=O)c1ccc(Nc2nc(Nc3cccc(OC)c3)nc(N3CCOCC3)n2)cc1 [VIRADEM-12329, 4-[4-(3-Methoxyphenylamino)-6-morpholin-4-yl-[1,3,5]triazin-2-ylamino]-benzoic acid methyl ester] | 368 | 465 |  |
| Cc1ccc(Nc2nc(N3CCCCCC3)nc(N3CCOCC3)n2)cc1 [VIRADEM-15229, (4-Azepan-1-yl-6-morpholin-4-yl-[1,3,5]triazin-2-yl)-p-tolyl-amine] | 1040 | 1190 |  |
| Cc1ccc(Nc2nc(N3CCOCC3)nc(N3CCCc4ccccc43)n2)cc1C [VIRADEM-15278, [4-(3,4-Dihydro-2-H-quinolin-1-yl)-6-morpholin-4-yl-[1,3,5]triazin-2-yl]-(3,4-dimethylphenyl)-amine] |  |  | IC50 (read-out: IC50): 194 nM; IC90 (read-out: IC90): 388 nM |
| COc1ccc(Nc2nc(Nc3cccc(C)c3)nc(N3CCOCC3)n2)cc1 [hydrochloride] |  |  | IC50 [3]: 338 nM; IC90 [3]: 356 nM |
